Source: ChEMBL document CHEMBL1155336, “Design and discovery of 1,3-benzodiazepines as novel dopamine antagonists” (Bioorg Med Chem Lett, 2009)

Tested on: not listed separately
Assay: Ionization constant for the compound (pKa)
Type: physicochemical

pKa | Structure (SMILES)
8.9 | CCCC/N=C/N(C)c1ccccc1
10.8 | N=C(N)Nc1ccccc1 [PHENYLGUANIDINE]

Organism: Homo sapiens
Assay: Selectivity ratio, the ratio of ki for human D2 receptor to Ki for human D1 receptor

Structure (SMILES) | Ratio
CC1=NCCc2cc(Cl)c(O)cc2N1c1ccccc1C | 31
CC1=NCCc2cc(Cl)c(O)cc2N1c1ccccc1 | 36
CC1=NCCc2cc(Cl)c(O)cc2N1c1ccc(C)cc1 | 55
COc1ccc2cc(C3=NCCc4cc(Cl)c(O)cc4N3)ccc2c1 | 4
CC1=NCCc2cc(Cl)c(O)cc2N1Cc1ccccc1 | 3
CC1=NCCc2cc(Cl)c(O)cc2N1c1ccsc1 | 32
COc1ccc(C2CC2C2=NCCc3cc(Cl)c(O)cc3N2)cc1 (centres undefined) | 3
Oc1cc2c(cc1Cl)CCN=C(NCCc1ccccc1)N2 | 1
CN(C)c1ccc(/C=C/C2=NCCc3cc(Cl)c(O)cc3N2c2ccccc2)cc1 | 23
CN(C)c1ccc(/C=C/C2=NCCc3cc(Cl)c(O)cc3N2C2CCCCC2)cc1 | 8
COc1ccc(/C=C/C2=NCCc3cc(Cl)c(O)cc3N2)cc1 | 3

The next lines start with the values.

Ratio | Structure (SMILES)
1 | NC1=NCCc2cc(Cl)c(O)cc2N1
13 | CNC1=NCCc2cc(Cl)c(O)cc2N1
6 | Oc1cc2c(cc1Cl)CCN=C(NC1CC1)N2
17 | CC(C)CC1=NCCc2cc(Cl)c(O)cc2N1
12 | Oc1cc2c(cc1Cl)CCN=C(NC1CCCC1)N2
5 | CSC1=NCCc2cc(Cl)c(O)cc2N1
42 | Oc1cc2c(cc1Cl)CCN=C(c1ccccc1)N2
7 | Oc1cc2c(cc1Cl)CCN=C(C1CCCCC1)N2
2 | Oc1cc2c(cc1Cl)CCN=C(SCc1ccccc1)N2
1 | Oc1cc2c(cc1Cl)CCN=C(C1CC1)N2
12 | Oc1cc2c(cc1Cl)CCN=C(NC1CCCCC1)N2
